From patent US8598153B2, “Method of treatment using fatty acid synthesis inhibitors” (Merck Sharp & Dohme Corp., priority 2006, dated 2013)

How the values were obtained:
[1] = target: T1, human FAS (Homo sapiens, UniProt P49327); test: FAS inhibitory activity in cell free Flashplate assay (formation of 3H-palmitate), human FAS; type: biochemical; details: human FAS from SkBr3 cells, cell free flash plate assay
T1 construct: Cell extracts were processed by ammonium sulfate precipitation followed by DEAE chromatography; endogenous in cells; host or cells: SkBr3 human breast cancer cells (endogenous FAS, partially purified)
T1 sequence (P49327 whole entry): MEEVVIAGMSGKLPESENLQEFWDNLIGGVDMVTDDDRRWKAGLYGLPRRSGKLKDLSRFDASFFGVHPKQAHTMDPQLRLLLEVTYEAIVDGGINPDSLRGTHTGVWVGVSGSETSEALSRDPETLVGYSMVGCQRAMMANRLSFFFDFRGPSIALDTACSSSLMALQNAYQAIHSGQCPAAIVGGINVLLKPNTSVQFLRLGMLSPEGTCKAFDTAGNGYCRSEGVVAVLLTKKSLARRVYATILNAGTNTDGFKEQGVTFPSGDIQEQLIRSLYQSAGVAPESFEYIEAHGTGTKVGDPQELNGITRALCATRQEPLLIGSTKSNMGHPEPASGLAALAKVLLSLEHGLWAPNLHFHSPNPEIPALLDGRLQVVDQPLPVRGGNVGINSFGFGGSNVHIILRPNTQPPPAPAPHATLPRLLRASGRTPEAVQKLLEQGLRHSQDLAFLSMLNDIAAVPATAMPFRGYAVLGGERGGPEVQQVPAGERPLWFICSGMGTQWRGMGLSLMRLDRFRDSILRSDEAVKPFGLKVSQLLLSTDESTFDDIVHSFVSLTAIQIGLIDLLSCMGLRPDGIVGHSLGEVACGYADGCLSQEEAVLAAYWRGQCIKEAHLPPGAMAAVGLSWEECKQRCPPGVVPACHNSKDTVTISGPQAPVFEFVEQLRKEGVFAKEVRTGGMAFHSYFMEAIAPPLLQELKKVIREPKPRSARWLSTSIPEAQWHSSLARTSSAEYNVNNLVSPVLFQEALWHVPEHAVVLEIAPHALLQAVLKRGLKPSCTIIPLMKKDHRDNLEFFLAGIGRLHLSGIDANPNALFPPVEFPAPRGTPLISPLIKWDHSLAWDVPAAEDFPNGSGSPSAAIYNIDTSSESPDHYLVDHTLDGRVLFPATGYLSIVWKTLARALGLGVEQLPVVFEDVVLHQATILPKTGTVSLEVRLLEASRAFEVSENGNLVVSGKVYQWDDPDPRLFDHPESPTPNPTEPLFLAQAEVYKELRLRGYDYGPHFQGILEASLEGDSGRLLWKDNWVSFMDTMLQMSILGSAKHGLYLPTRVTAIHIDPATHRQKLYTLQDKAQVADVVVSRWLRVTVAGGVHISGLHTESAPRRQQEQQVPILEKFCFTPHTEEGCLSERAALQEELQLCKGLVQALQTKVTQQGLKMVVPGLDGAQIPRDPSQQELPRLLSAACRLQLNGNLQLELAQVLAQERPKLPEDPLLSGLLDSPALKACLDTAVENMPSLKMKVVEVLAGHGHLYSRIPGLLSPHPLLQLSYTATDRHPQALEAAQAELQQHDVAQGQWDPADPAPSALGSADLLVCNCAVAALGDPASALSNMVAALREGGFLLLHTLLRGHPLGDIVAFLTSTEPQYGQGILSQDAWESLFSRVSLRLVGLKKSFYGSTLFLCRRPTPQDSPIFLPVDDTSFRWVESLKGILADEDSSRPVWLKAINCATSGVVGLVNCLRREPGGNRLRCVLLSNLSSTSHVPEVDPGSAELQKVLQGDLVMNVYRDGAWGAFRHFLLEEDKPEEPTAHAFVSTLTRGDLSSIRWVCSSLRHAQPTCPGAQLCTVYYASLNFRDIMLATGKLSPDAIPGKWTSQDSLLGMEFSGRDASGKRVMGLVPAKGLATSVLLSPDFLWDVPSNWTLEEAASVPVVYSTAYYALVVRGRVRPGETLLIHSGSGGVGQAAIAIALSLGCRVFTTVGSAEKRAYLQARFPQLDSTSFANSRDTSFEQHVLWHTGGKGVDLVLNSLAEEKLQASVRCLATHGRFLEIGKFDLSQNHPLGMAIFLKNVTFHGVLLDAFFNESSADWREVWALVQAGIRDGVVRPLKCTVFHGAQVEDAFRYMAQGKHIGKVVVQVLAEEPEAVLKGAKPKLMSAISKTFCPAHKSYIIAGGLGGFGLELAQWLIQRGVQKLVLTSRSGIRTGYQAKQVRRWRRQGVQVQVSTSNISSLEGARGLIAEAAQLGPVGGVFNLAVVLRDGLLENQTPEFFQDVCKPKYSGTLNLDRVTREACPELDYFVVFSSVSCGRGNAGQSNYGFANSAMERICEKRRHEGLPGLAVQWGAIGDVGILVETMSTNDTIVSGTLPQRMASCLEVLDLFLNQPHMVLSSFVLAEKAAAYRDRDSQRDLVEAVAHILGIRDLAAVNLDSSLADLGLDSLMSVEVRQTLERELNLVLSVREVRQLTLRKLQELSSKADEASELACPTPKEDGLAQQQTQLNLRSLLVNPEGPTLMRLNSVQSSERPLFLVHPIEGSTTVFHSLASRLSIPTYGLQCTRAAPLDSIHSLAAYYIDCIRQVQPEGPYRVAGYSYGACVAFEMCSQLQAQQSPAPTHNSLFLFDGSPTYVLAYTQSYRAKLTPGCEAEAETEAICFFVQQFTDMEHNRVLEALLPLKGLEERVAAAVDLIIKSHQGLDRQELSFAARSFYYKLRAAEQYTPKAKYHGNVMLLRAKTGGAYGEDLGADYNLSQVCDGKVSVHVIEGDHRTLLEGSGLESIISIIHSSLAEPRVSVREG
Description: (§1) Compounds with formula I (platensimycin) and II (platencin) were titrated against human or rat FAS using the Flashplate assay. Animal FAS activity was assayed radiochemically for the formation of ^3H-palmitate. The assay buffer contained 200 mM KPi, pH 7, 2 mM EDTA, 2.5 mM DTT, 5 μM Acetyl CoA (^3H-acetyl-CoA, Specific Activity=0.3 Ci/mmole), 21 μM malonyl-CoA, and 20 uM NADPH in a final reaction volume of 200 μl Assays are performed in 96-well Phospholipid coated FlashPlates (Perkin Elmer). The reaction was initiated by adding FAS (0.17 mUnits/well, 1 Unit=1μ mole of NADPH consumed/minute). The plates were incubated at RT for 5 minutes before adding 6 μl of perchloric acid to stop the reaction. The plates sat at RT for at least 3 hours, preferably overnight, before counting. Background was determined from wells without malonyl CoA. The source of Human FAS was SkBr3 cells. Cell extracts were processed by ammonium sulfate precipitation followed by DEAE chromatography essentially as described by Jayakumar et al., 1995 (Jayakumar A, Tai M H, Huang W Y, al-Feel W, Hsu M, Abu-Elheiga L, Chirala S S, Wakil S J. Human fatty acid synthase: properties and molecular cloning. Proc Natl Acad Sci USA. 1995 Sep. 12; 92(19):8695-9). […]

[2] = target: T2, rat FAS (Rattus norvegicus, UniProt P12785); test: FAS inhibitory activity in cell free Flashplate assay (formation of 3H-palmitate), rat FAS; type: biochemical; details: rat liver FAS, cell free flash plate assay
T2 construct: The clarified supernatant was fractionated by ammonium sulfate precipitation; from tissue; host or cells: rat liver (fasted and high carbohydrate re-fed rats)
T2 sequence (P12785 whole entry): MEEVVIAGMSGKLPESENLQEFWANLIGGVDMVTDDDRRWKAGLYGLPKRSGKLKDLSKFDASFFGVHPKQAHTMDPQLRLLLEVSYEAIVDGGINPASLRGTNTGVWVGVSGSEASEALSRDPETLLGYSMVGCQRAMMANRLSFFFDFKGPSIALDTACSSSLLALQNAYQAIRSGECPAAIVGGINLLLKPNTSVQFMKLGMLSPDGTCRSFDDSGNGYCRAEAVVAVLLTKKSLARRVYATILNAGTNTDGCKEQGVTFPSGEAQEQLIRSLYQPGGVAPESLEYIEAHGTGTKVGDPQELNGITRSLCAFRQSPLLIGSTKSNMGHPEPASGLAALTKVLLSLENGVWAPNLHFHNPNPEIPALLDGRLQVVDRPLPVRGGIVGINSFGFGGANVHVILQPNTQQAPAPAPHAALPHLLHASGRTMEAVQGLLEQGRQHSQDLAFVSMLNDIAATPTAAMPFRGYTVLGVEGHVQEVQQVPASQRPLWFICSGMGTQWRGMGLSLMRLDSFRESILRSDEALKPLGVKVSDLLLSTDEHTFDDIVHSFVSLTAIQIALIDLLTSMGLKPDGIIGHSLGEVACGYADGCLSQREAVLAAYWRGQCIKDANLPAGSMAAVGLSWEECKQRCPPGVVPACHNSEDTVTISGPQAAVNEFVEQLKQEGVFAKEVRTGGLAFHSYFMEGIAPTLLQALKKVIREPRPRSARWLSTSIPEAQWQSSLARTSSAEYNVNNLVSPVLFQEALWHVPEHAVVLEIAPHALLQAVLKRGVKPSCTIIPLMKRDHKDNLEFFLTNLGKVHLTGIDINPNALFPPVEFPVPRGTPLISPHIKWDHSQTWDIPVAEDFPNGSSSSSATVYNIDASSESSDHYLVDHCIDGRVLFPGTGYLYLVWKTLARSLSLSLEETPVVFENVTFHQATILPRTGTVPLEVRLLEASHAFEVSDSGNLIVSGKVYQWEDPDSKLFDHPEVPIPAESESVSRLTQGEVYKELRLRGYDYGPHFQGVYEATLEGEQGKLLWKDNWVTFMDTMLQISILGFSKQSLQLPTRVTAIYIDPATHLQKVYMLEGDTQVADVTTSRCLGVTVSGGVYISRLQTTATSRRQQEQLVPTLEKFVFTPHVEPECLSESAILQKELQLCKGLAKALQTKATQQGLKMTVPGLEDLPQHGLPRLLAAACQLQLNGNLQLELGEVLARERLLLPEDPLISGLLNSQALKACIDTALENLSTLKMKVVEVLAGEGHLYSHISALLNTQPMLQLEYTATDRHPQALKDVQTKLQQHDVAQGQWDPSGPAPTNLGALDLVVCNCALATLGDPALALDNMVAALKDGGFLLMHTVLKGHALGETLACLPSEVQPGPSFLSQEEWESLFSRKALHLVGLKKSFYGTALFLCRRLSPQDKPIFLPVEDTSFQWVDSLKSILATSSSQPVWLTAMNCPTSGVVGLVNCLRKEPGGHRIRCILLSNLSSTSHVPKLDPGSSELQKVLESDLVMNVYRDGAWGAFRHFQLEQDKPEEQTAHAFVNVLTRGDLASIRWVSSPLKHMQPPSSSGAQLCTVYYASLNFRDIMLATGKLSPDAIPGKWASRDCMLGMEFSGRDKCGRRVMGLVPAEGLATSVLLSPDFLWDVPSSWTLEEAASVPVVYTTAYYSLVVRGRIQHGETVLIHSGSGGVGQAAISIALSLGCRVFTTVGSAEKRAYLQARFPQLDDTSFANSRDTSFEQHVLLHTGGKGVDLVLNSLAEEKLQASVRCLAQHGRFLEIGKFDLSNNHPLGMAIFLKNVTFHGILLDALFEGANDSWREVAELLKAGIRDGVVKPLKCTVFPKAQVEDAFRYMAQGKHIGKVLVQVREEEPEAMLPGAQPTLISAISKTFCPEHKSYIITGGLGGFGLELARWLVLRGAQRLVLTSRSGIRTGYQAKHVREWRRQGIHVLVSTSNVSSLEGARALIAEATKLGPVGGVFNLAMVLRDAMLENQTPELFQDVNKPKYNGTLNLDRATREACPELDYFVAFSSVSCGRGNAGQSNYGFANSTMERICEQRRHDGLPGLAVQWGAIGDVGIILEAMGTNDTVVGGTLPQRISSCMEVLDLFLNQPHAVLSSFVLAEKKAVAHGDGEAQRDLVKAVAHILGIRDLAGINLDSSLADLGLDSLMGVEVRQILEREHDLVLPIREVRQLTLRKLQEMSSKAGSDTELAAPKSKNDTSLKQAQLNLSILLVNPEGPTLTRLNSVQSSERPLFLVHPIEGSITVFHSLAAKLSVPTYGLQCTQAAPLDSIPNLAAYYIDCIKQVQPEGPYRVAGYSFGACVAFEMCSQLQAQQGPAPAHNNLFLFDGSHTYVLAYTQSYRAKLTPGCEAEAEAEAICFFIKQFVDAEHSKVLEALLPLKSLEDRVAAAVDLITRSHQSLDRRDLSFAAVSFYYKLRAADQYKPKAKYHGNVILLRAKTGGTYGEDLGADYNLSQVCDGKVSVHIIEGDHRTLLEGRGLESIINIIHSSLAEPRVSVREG
Description: as §1

[3] = test system: fatty acid synthesis in rat hepatocytes; test: Fatty acid synthesis in rat hepatocytes in vitro (C14-acetate incorporation); type: cell-based; details: Hepatocyte, primary rat hepatocytes, read-out: Rat IC50 μM, fatty acid synthesis inhibitory activity
Excerpt: 115: 1030-1038 (2003) with modifications. […] The plates were gassed and sealed.

[4] = test system: fatty acid oxidation in rat hepatocytes
Description: Fatty acid oxidation in the hepatocytes was determined the conversion of C14-oleic acid to soluble acid products as described (Jiang G, Li Z, Liu F, Ellsworth K, Dallas-Yang Q, Wu M, Ronan J, Essau C, Murphy C, Szalkowski D, Bergeron R, Doebber T and Zhang B. Prevention of obesity in mice by antisense oligonucleotide inhibitors of stearoyl-CoA desaturase-1. J. Clin. Invest. 115: 1030-1038 (2003); Mannaerts G P, Debeer L J, Thomas J, ans DeSchepper P J. Mitochondrial and proxisomal fatty acid oxidation in liver homogenates and isolated hepatocytes from control and clofibrate-treated rats. J. Biol. Chem. 254:4585-4595 (1979)) with modifications. Hepatocytes seeded overnight and washed twice with PBS and then pre-incubated with compounds in 5 μl of DMSO in 2 ml medium199 plus 0.25% bovine serum albumin for 60 min. C14-oleic acid 0.25 μCi (NEN) was added to each well. The plates were gassed and sealed. After one hr incubation, 1 ml of medium was removed, mixed with 100 μl of 10% BSA and then 100 μl 60% HClO4. After centrifugation, 1 ml of the solution was counted the level of soluble acid products.

Structure (SMILES)	IC50 [1] [µM]	IC50 [2] [µM]	IC50 [3] [µM]	Inhibition of Oxidation of Fatty Acids, Rat Hepatocyte (% of control at 10 uM) [4]
C[C@]12C[C@@]34C=CC(=O)[C@@](C)(CCC(=O)Nc5c(O)ccc(C(=O)O)c5O)C3[C@H](CC1C4)O2 (stereo partly shown) [Formula I, platensimycin]	0.3	0.18	0.093	59.7 % of control
C=C1C[C@@]23C=CC(=O)[C@@](C)(CCC(=O)Nc4c(O)ccc(C(=O)O)c4O)[C@@H]2C[C@@H]1CC3 [Formula II, platencin]	6.3		3.24	66.0 % of control
